# Results as given in patent US11058718B2, “Method for treating non-alcoholic steatohepatitis (NASH) with the combination of polaprezinc and sodium selenite” (Medico Consl Co., Ltd., priority 2019, dated 2021).
# How the values were obtained:
# [1] = tested on: NASH model mice (STAM mouse); experiment: NASH model (STAM) mice, oral administration once a day for 28 days; liver tissue images, liver weight, serum and hepatic markers, NAS; assay type: in vivo; design: TNF-alpha, Score showing the degree of inflammation / IFN-gamma, Score showing the degree of inflammation: scale not given here; details: for serum ferritin level: oral 28 days (FIG. 7); for TNF-alpha, Score showing the degree of inflammation: oral 28 days (FIG. 11); for IFN-gamma, Score showing the degree of inflammation: oral 28 days (FIG. 12); for hepatic fibrosis area ratio: oral 28 days (FIG. 13); for weight ratio of liver to body / serum ALT level / hepatic TG (hepatic triglyceride) / MCP-1 (monocyte chemotactic protein-1) / NAS (NAFLD activity score) / hepatic ballooning score / lobular inflammation score / steatosis score / NAS (NAFLD activity score) improvement, in words: oral 28 days; for weight ratio of liver to body: after administration (FIG. 5); for serum ALT level: after administration (FIG. 6); for hepatic TG (hepatic triglyceride): after administration (FIG. 9); for MCP-1 (monocyte chemotactic protein-1): after administration (FIG. 10); for NAS (NAFLD activity score): full score of 8 (FIG. 17); for hepatic ballooning score: score of 0 to 2 (FIG. 14); for lobular inflammation score: score of 0 to 3 (FIG. 15); for steatosis score: score of 0 to 3 (FIG. 16); for liver weight: oral once a day, 28 days, polaprezinc 45.2 mg/kg, sodium selenite 150 μg/kg, after administration (FIG. 4); for NAS (NAFLD activity score) improvement, in words: comparison between groups
# Procedure: An internationally prized and recognized STAM (registered trademark) mouse was used for the research model of non-alcoholic fatty liver disease (NAFLD) and/or non-alcoholic steatohepatitis (NASH). A STAM (registered trademark) mouse is an animal model of non-alcoholic steatohepatitis prepared by administrating inflammation inducer of the pancreas (patent literature 2) which Stelic Institute & Co. developed and is publically informed as patentee, and many research reports using this animal model has already been made domestic and overseas.
# The NASH model mice were assigned to four groups (eight mice per group) by body weight stratification random sampling method so that the average body weight is equal. The four groups are the zinc preparation (polaprezinc)+selenium preparation (sodium selenite) group, zinc preparation (polaprezinc) alone group, selenium preparation (sodium selenite) alone group, and control group. The route of administration was oral administration, and the period of administration was 28 days.
# The number of administration was once a day. The dosage was 10 ml/kg body weight and was administrated using an oral zonde.
# The dosages of each group are shown below.
# Blood was collected from the heart under ether anesthesia at the end of administration. The obtained serum was divisionally injected into a tube. It was euthanized by exsanguination after blood sampling and the photograph of the extracted liver was taken. For all necropsied animals, treatment was made to divide the liver into four respective lobes (right/left medial lobe, left lateral lobe, right lobe, caudate lobe), wherein especially the left lateral lobe was treated for three parts taking two each of its six equally divided parts, and the tissue image was analyzed.
# The evaluation for non-alcoholic fatty liver disease (NAFLD) and/or non-alcoholic steatohepatitis (NASH) improvement was evaluated by the following items.
# NAS (NAFLD activity score) is used to evaluate non-alcoholic fatty liver disease (NAFLD). NAS is advocated by Nonalcoholic⋅Steato⋅hepatitis⋅Clinical⋅Research⋅Network (nonpatent literature 2). […] The activity of NAS is evaluated by putting the three of steatosis, lobular inflammation, and Ballooning degeneration into scores. It is shown in full score of 8 in total, score of 0 to 3 for steatosis and lobular inflammation, and score of 0 to 2 for hepatic Ballooning degeneration. Steatosis, lobular inflammation, hepatic Ballooning degeneration, and NAS (NAFLD activity score) was compared and examined for the four groups, the group of the combination drug of zinc preparation (polaprezinc) and selenium preparation (sodium selenite), the control group, the zinc preparation (polaprezinc) alone group, and the selenium preparation (sodium selenite) alone group.
# hepatic fibrosis = details: from patent literature 1, nonpatent literature 3 and 5; cited from earlier work
Structure (SMILES),serum ferritin level [1],"TNF-alpha, Score showing the degree of inflammation [1]","IFN-gamma, Score showing the degree of inflammation [1]",hepatic fibrosis area ratio [1] [%],weight ratio of liver to body [1] [%],serum ALT level [1] [IU/L],hepatic TG (hepatic triglyceride) [1] [mg/dL],MCP-1 (monocyte chemotactic protein-1) [1],NAS (NAFLD activity score) [1],hepatic ballooning score [1],lobular inflammation score [1],steatosis score [1],liver weight [1],suppression of hepatic fibrosis (prior reports) (hepatic fibrosis),"F4/80 (macrophage) antigen expression level in stained liver tissue ([1]; oral 28 days (FIG. 2-1, 2-2))","NAS (NAFLD activity score) improvement, in words [1]","NAS (NAFLD activity score) improvement, in words ([1]; listed as Zinc preparation (polaprezinc))"
"O=[Se](O)O [selenium preparation (sodium selenite), sodium selenite]","5,251 ng/ml",13.23,8.02,1.18,7.43,54.6,57.3,3.2,3.54,1.23,1.46,0.85,"1,385.2 mg",,,,
"NCCC(=O)[N-][C@@H](Cc1c[nH]cn1)C(=O)[O-].[Zn+2] [zinc preparation (polaprezinc), L-carnosine zinc salt]","5,740 ng/ml",12.80,7.95,1.16,7.49,58.8,64.2,3.3,3.62,1.38,1.38,0.85,"1,389 mg",suppresses hepatic fibrosis,suppresses the expression level significantly compared with the control,significantly declined NAS (NAFLD activity score) compared with the control group,showed improvement compared to the control group
